Assay results taken from PubChem BioAssay AID2060909 (Molecular Pharmacology Branch, DTP, NCI, 2025).
Each block holds one compound with its values, some of them ahead of it.

Tested on: 362531-283-R-J2-PDC complex spheroid viability
Assay: Anticancer human tumor 362531-283-R-J2-PDC patient-derived colon adenocarcinoma cell line growth inhibition [RAS]
Details: for viability, T/C: stronger effect = lower value
Summary of the method: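 Tumour cells grown as complex spheroids with HUVEC endothelial cells and mesenchymal stem cells, treated with RAS pathway inhibitor combinations. Each agent spans half-log steps from near clinical Cmax, or 10 microM where Cmax is unknown.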

[1] = curve of first compound, second compound 0.000949 µM
[2] = curve of first compound, second compound 0.003 µM
[3] = curve of first compound, second compound 0.00949 µM
[4] = curve of first compound, second compound 0.03 µM
[5] = curve of first compound, second compound 0.0949 µM
[6] = curve of first compound, second compound 0.3 µM
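Note: spheroids exposed to the agents for 7 days before readout.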
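Throughout, for viability, T/C: luminescence viability as percent of DMSO vehicle control wells.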

- IC50 [1]: 42.1 nM
- IC50 [2]: 37.8 nM
- IC50 [3]: 41.4 nM
- IC50 [4]: 35.8 nM
- IC50 [5]: 14.4 nM
- IC50 [6]: < 0.949 nM
SMILES: CCc1c2c(nc3ccc(O)cc13)-c1cc3c(c(=O)n1C2)COC(=O)[C@]3(O)CC + CCn1c(-c2cc(N3CCN(C)CC3)cnc2C(C)OC)c2c3cc(ccc31)-c1csc(n1)CC(NC(=O)C1CC1C)C(=O)N1CCCC(N1)C(=O)OCC(C)(C)C2
- viability, T/C (second compound 0.000949 µM, first compound 0.000949 µM): 94.3%
- viability, T/C (second compound 0.000949 µM, first compound 0.003 µM): 90.9%
- viability, T/C (second compound 0.000949 µM, first compound 0.00949 µM): 80.9%
- viability, T/C (second compound 0.000949 µM, first compound 0.03 µM): 61.4%
- viability, T/C (second compound 0.000949 µM, first compound 0.0949 µM): 26.2%
- viability, T/C (second compound 0.000949 µM, first compound 0.3 µM): 16.4%
- viability, T/C (second compound 0.003 µM, first compound 0.000949 µM): 97.5%
- viability, T/C (second compound 0.003 µM, first compound 0.003 µM): 99.7%
- viability, T/C (second compound 0.003 µM, first compound 0.00949 µM): 75.1%
- viability, T/C (second compound 0.003 µM, first compound 0.03 µM): 61.8%
- viability, T/C (second compound 0.003 µM, first compound 0.0949 µM): 23.4%
- viability, T/C (second compound 0.003 µM, first compound 0.3 µM): 19.2%
- viability, T/C (second compound 0.00949 µM, first compound 0.000949 µM): 101%
- viability, T/C (second compound 0.00949 µM, first compound 0.003 µM): 97.1%
- viability, T/C (second compound 0.00949 µM, first compound 0.00949 µM): 74.4%
- viability, T/C (second compound 0.00949 µM, first compound 0.03 µM): 63.6%
- viability, T/C (second compound 0.00949 µM, first compound 0.0949 µM): 26.9%
- viability, T/C (second compound 0.00949 µM, first compound 0.3 µM): 12.6%
- viability, T/C (second compound 0.03 µM, first compound 0.000949 µM): 94.3%
- viability, T/C (second compound 0.03 µM, first compound 0.003 µM): 89.1%
- viability, T/C (second compound 0.03 µM, first compound 0.00949 µM): 69.4%
- viability, T/C (second compound 0.03 µM, first compound 0.03 µM): 59.5%
- viability, T/C (second compound 0.03 µM, first compound 0.0949 µM): 25.3%
- viability, T/C (second compound 0.03 µM, first compound 0.3 µM): 7.44%
- viability, T/C (second compound 0.0949 µM, first compound 0.000949 µM): 76.8%
- viability, T/C (second compound 0.0949 µM, first compound 0.003 µM): 65.3%
- viability, T/C (second compound 0.0949 µM, first compound 0.00949 µM): 61.4%
- viability, T/C (second compound 0.0949 µM, first compound 0.03 µM): 33.8%
- viability, T/C (second compound 0.0949 µM, first compound 0.0949 µM): 14.2%
- viability, T/C (second compound 0.0949 µM, first compound 0.3 µM): 5.26%
- viability, T/C (second compound 0.3 µM, first compound 0.000949 µM): 33.5%
- viability, T/C (second compound 0.3 µM, first compound 0.003 µM): 45.4%
- viability, T/C (second compound 0.3 µM, first compound 0.00949 µM): 17.2%
- viability, T/C (second compound 0.3 µM, first compound 0.03 µM): 13.4%
- viability, T/C (second compound 0.3 µM, first compound 0.0949 µM): 5.23%
- viability, T/C (second compound 0.3 µM, first compound 0.3 µM): 2.69%

- IC50 (curve of compound): 167 nM [middle of 4 runs]
SMILES: Nc1ccn(C2OC(CO)C(O)C2(F)F)c(=O)n1 (stereo unspecified)
- viability, T/C (compound 0.00316 µM): 93.5% [middle of 4 runs]
- viability, T/C (compound 0.01 µM): 95.2% [middle of 4 runs]
- viability, T/C (compound 0.0316 µM): 84.4% [middle of 4 runs]
- viability, T/C (compound 0.1 µM): 70.5% [middle of 4 runs]
- viability, T/C (compound 0.316 µM): 21.9% [middle of 4 runs]
- viability, T/C (compound 1 µM): 26.6% [middle of 4 runs]

- IC50 [1]: 1290 nM
- IC50 [2]: 1610 nM
- IC50 [3]: 952 nM
- IC50 [4]: 849 nM
- IC50 [5]: 431 nM
- IC50 [6]: < 31.6 nM
SMILES: CC(Nc1ccc2c(c1)OCCn1cc(N3C(=O)OCC3C(F)F)nc1-2)C(N)=O (stereo unspecified) + CCn1c(-c2cc(N3CCN(C)CC3)cnc2C(C)OC)c2c3cc(ccc31)-c1csc(n1)CC(NC(=O)C1CC1C)C(=O)N1CCCC(N1)C(=O)OCC(C)(C)C2
- viability, T/C (second compound 0.000949 µM, first compound 0.0316 µM): 98.7%
- viability, T/C (second compound 0.000949 µM, first compound 0.1 µM): 107%
- viability, T/C (second compound 0.000949 µM, first compound 0.316 µM): 86.6%
- viability, T/C (second compound 0.000949 µM, first compound 1 µM): 58%
- viability, T/C (second compound 0.000949 µM, first compound 3.16 µM): 26.4%
- viability, T/C (second compound 0.000949 µM, first compound 10 µM): 27.9%
- viability, T/C (second compound 0.003 µM, first compound 0.0316 µM): 103%
- viability, T/C (second compound 0.003 µM, first compound 0.1 µM): 98.8%
- viability, T/C (second compound 0.003 µM, first compound 0.316 µM): 93%
- viability, T/C (second compound 0.003 µM, first compound 1 µM): 59.5%
- viability, T/C (second compound 0.003 µM, first compound 3.16 µM): 36.7%
- viability, T/C (second compound 0.003 µM, first compound 10 µM): 27.5%
- viability, T/C (second compound 0.00949 µM, first compound 0.0316 µM): 96.8%
- viability, T/C (second compound 0.00949 µM, first compound 0.1 µM): 105%
- viability, T/C (second compound 0.00949 µM, first compound 0.316 µM): 64.9%
- viability, T/C (second compound 0.00949 µM, first compound 1 µM): 56.2%
- viability, T/C (second compound 0.00949 µM, first compound 3.16 µM): 32.4%
- viability, T/C (second compound 0.00949 µM, first compound 10 µM): 32.3%
- viability, T/C (second compound 0.03 µM, first compound 0.0316 µM): 97.2%
- viability, T/C (second compound 0.03 µM, first compound 0.1 µM): 89.6%
- viability, T/C (second compound 0.03 µM, first compound 0.316 µM): 70.7%
- viability, T/C (second compound 0.03 µM, first compound 1 µM): 45.8%
- viability, T/C (second compound 0.03 µM, first compound 3.16 µM): 38.7%
- viability, T/C (second compound 0.03 µM, first compound 10 µM): 34.9%
- viability, T/C (second compound 0.0949 µM, first compound 0.0316 µM): 88.6%
- viability, T/C (second compound 0.0949 µM, first compound 0.1 µM): 73%
- viability, T/C (second compound 0.0949 µM, first compound 0.316 µM): 51.9%
- viability, T/C (second compound 0.0949 µM, first compound 1 µM): 41.7%
- viability, T/C (second compound 0.0949 µM, first compound 3.16 µM): 32.5%
- viability, T/C (second compound 0.0949 µM, first compound 10 µM): 29.4%
- viability, T/C (second compound 0.3 µM, first compound 0.0316 µM): 32.6%
- viability, T/C (second compound 0.3 µM, first compound 0.1 µM): 28.3%
- viability, T/C (second compound 0.3 µM, first compound 0.316 µM): 11.2%
- viability, T/C (second compound 0.3 µM, first compound 1 µM): 3.11%
- viability, T/C (second compound 0.3 µM, first compound 3.16 µM): 3.38%
- viability, T/C (second compound 0.3 µM, first compound 10 µM): 3.53%
